Assay results from patent publication EP1675855B1, “4-AMINO-QUINOLINE OUINOLIZIDINYL-AND QUINOLIZIDINYLALKYL-DERIVATIVES WITH ANTIMALARIAL ACTIVITY” (Need Pharmaceuticals S.r.l., priority 2003, dated 2005).

How the values were obtained:
[1] = test system: chloroquine-resistant P. falciparum strains; assay: microbe, parasite or virus in culture; conditions: Plasmodium falciparum
Method: (§1) The compounds of the invention were tested in vitro on chloroquine-sensitive and chloroquine-resistant strains of P. falciparum. […] Parasites' growth was evaluated with a colorimetric assay for pLDH at 72 hours.

[2] = test system: chloroquine-sensitive P. falciparum strains; assay: microbe, parasite or virus in culture; conditions: Plasmodium falciparum
Method: as §1

For `CCN(CC)CCCC(C)Nc1ccnc2cc(Cl)ccc12` (centres unmarked) [chloroquine, 7-chloro-4-(4-diethylamino-1-methylbutylamino)quinoline], the IC50 [1] was 150 to 300 nM and the IC50 [2] was 27.8 ± 9 nM.
